Reference: patent publication US20180291070A1, “PEPTIDES, AND USES THEREOF” (priority 2015, published 2018)

Columns and labels:
TNF-α = TNF-α secretion by LPS-stimulated THP-1 differentiated macrophages (Biolegend ELISA); type: cell-based, human; conditions: for TNF-α DECREASE: THP-1 cells, 100, 10 or 1 ng/ml synthetic peptide 24 h, then 10 ng/ml LPS 5 h, vs untreated control
Experimental: TNF-α is secreted by macrophages in response to stimulation by endotoxins such as lipopolysaccharides (LPS). TNF-α is thought to be involved in systemic inflammation and dysregulation of TNF-α production is thought to be involved in many diseases. The Biolegend assay is a sandwich ELISA kit that is designed for the accurate quantitation of human TNF-α from cell culture supernatant, serum or plasma.
THP-1 monocytes were seeded in a 96 well plate at 10,000 cells per well in RPMI containing 10% fetal calf serum (FCS), 1% Pen/strep, 1% L-glutamine, 100 nM PMA and allowed to differentiated for 72 h prior to experimentation.
Following differentiation the cells were incubated with 100 ng/ml, 10 ng/ml or 1 ng/ml synthetic peptide for 24 h respectively.
Following treatment the cells were stimulated with 10 ng/ml LPS for 5 h and the quantity of TNF-α in the supernatant determined using the Biolegend assay ELISA kit.
Results were calculated as a percentage of the untreated control. An increase in optical density reading indicates greater quantity of TNF-α release into cell culture supernatant.
All experiments were prepared in duplicate on three plates (6 wells/conditions). Significance was calculated using Students t-test (*p<0.05 compared to control, **p<0.01 compared to control, *** p<0.001 compared to control).

[1] = test system: elastic fibers of the dermis; test: morphometric quantification of elastic fibers in skin explants; type: cell-based, Human; conditions: for Morphometric quantification of elastic fibers in the middle dermis (%) / Morphometric quantification of elastic fibers in the superficial dermis (%): applied twice per day, 5 μL per explant
Experimental: (§1) Skin explants were prepared from abdominal plastic surgery. Some explants were delipidated with alcohol to obtain a dehydrated skin.
(§2) These explants were maintained in maintenance medium supplied by the provider Biopredic International for 5 days. Test items are applied twice per day with 5 μL per explant.
(§3) For each time of analysis (D1 and D5), histologies on delipidated explants, treated explants with test items, the DMSO 0.3% control and water control, are performed.
(§4) After receipt in the laboratory, each skin explant in the maintenance medium is delipidated with 5 μL alcohol during 3 hours.
(§5) After 3 hours, all skin explants are treated two per day with test items, and they are incubated at 37° C.+/−2° C., 5% CO2 for 1 day or 5 days.
The immunohistochemical staining intensity in the elastic fibers is evaluated using a semi-quantitative histological score.
The percentage area taken up by elastic fibers in the dermis was calculated in the dermis and the average superficial dermis. Results are presents in Table 4, FIG. 2 and FIG. 3.

[2] = test system: keratinocytes of the basal layer of the epidermis; test: Ki67 immunohistochemistry (mitotic index) in skin explants; type: cell-based, Human; conditions: for number of mitotic cells compared to EGF: day 1
Experimental: as §1, §2, §3, §4, §5
Epithelial proliferation was analyzed by immunohistochemistry using anti-Ki67 antibody. […] Counting the number of labeled cells (keratinocytes of the basal layer of the epidermis) is performed and provides the total number of basal cells to calculate the % of labeled cells.
The results of the immunohistochemical analysis of Ki67 are reported in Table 5 and expressed as % of labelled at the basal layer of the epidermis. The Error! […] Immunohistochemical analysis of mitotic activity is shown in annex 4 with a reminder of the average for each analysed conditions.

[3] = test system: Human Dermal Fibroblasts (HDF); test: BrdU Cell Proliferation Assay; type: cell-based; conditions: 5, 0.5 or 0.05 μg/ml synthetic peptide 24 h
Experimental: BrDu is incorporated into newly synthesised DNA strands of actively proliferating cells. Following partial denaturation of double stranded DNA, Brdu is detected immunochemically allowing the assessment of the population of cells which are synthesizing DNA. Human Dermal Fibroblasts (HDF—Sigma 10605a) were seeded in a 96 well plate at 10,000 cells per well in DMEM containing 10% fetal calf serum (FCS), 1% Pen/strep, 1% L-glutamine and allowed to adhere for 24 h. Following the initial 24 h incubation the cells were incubated with 5 μg/ml, 0.5 μg/ml or 0.05 μg/ml synthetic peptide for 24 h respectively. After 18 h incubation with synthetic peptides 20 μl BrDu reagent was added to each well. At 24 h incubation the cell were fixed and the amount of […] was measured using the BrdU Cell Proliferation Assay, all steps were carried out according to the manufacturer's instructions. Results were calculated as a percentage of the untreated control. An increase in optical density reading indicates greatER incorporation of BrDu and increase cell proliferation.

| Substance | TNF-α DECREASE (TNF-α) [%] | Morphometric quantification of elastic fibers in the middle dermis (%) ([1]; D1) | Morphometric quantification of elastic fibers in the superficial dermis (%) ([1]; D1) | Morphometric quantification of elastic fibers in the middle dermis (%) ([1]; D5) | Morphometric quantification of elastic fibers in the superficial dermis (%) ([1]; D5) | % of Ki67 positive cells in the basal layer of the epidermis ([2]; D1) [%] | % of Ki67 positive cells in the basal layer of the epidermis ([2]; D5) [%] | further results |
| --- | --- | --- | --- | --- | --- | --- | --- | --- |
| 91 (TVFNGELR) [compound 91] | 80 | – | – | – | – | – | – | – |
| 339 (ASSNLNLLGF) [compound 339] | 26 | – | – | – | – | – | – | – |
| 352 (ARLSPGDVVIIPAGHPVAITA) [compound 352] | 23 | – | – | – | – | – | – | – |
| RPYYSNAPQEIF [0723.04] | – | 5.22 | 3.28 | 9 | 8.94 | 14.97 | 11.36 | – |
| QQYGIAASPFLQSAA [0723.07] | – | 6.46 | 4 | 5.33 | 5.15 | 22.22 | 5.26 | – |
| 105 (LAGNKRNPQAYR) [compound 105] | 9 | – | – | – | – | – | – | INCREASE IN PROLIFERATION [3]: 40% |
| VLLEQQEQEPQH [0723.05] | – | 8.8 | 6.34 | 6.61 | 6.26 | 9.48 | 3.08 | – |
| EDLRLVDLVIPVNGPGKFE [0723.06] | – | 4.54 | 3.8 | 8.67 | 4.03 | 31.97 | 5.04 | number of mitotic cells compared to EGF [2]: increase |
| 353 (HGPVEMPYTLLYPSSK) [compound 353] | 20 | – | – | – | – | – | – | – |
| 351 (LSPGDVVIIPAGHPVAITASSNL) [compound 351] | 18 | – | – | – | – | – | – | – |
| 345 (RGDTIKLPAGTTSYLVNQDDE) [compound 345] | 23 | – | – | – | – | – | – | – |
| 349 (LSPGDVVIIPAGHPVAITASSNLNLLGFGINAENNER) [compound 349] | 6 | – | – | – | – | – | – | – |
| RHGEWRPSY [0723.01] | – | 7.59 | 4.45 | 10.17 | 10.21 | 18.57 | 3.92 | elastic fibers in the middle dermis compared to the water control ([1]; D5): increase; elastic fibers in the superficial dermis compared to control water ([1]; D5): increase by twice |
| 93 (YIIQGRGITGPTF) [compound 93] | 14 | – | – | – | – | – | – | INCREASE IN PROLIFERATION [3]: 26% |
| 346 (ARLSPGDVVIIPAGHPVA) [compound 346] | 18 | – | – | – | – | – | – | – |
| 85 (SIFRALPTDVLANAYRISREE) [compound 85] | 80 | – | – | – | – | – | – | INCREASE IN PROLIFERATION [3]: 35% |
| DEHQKIHQFR [0723.08] | – | 3.52 | 2.7 | 7.27 | 5.32 | 27.83 | 5.72 | number of mitotic cells compared to EGF [2]: increase; TNF-α secretion reduced vs. untreated cells (TNF-α; THP-1 differentiated macrophages treated 24 hrs. prior to LPS stimulation): 80% |
| HGEWRPSYEKQEDEE [0723.03] | – | 4.9 | 3 | 9 | 11.68 | 22.01 | 10.04 | elastic fibers in the middle dermis compared to the water control ([1]; D5): increase; elastic fibers in the superficial dermis compared to control water ([1]; D5): increase by twice |
| 92 (QVQVVNNNGKTVF) [compound 92] | 13 | – | – | – | – | – | – | – |
| 473 (FYNEGDAPVV) [compound 473] | – | – | – | – | – | – | – | INCREASE IN PROLIFERATION [3]: 41% |
| 75 (IYVTDLNNGANQLDPRQRD) [compound 75] | 11 | – | – | – | – | – | – | – |
| EGF (Epidermal Growth Factor): Epidermal Growth Factor, 10 ng/mL, comparison condition in the skin explant tests [reference compound] | – | 5.68 | 3.64 | 6.61 | 5.61 | 25.11 | 4.2 | – |
| 350 (ARLSPGDVVIIPAGHPVAITAS) [compound 350] | 80 | – | – | – | – | – | – | – |
